{
  "source": "patent US6943016B1",
  "about": "“Human adult astrocytes, their preparation and uses thereof” (Aventis Pharma S.A., priority 1999, dated 2005)",
  "system": "human adult astrocytes",
  "experiment": "TH activity in transduced human adult astrocytes (enzymatic assay of Reinhard et al.)",
  "assay_type": "cell-based",
  "conditions": "AdPGKtet hTH-1-infected astrocytes, doxycycline 10 ng/ml",
  "method": "The medium was renewed every second day.\nThree, 7 and 14 days after infection, cells were harvested and processed to measure TH activity and evaluate L-Dopa production. TH activity of cell pellets was assayed as previously described (Reinhard et al. 1986). The production of L-Dopa was assessed after growing human astrocytes for 24 h in DMEM/F12 without FCS. Conditioned media was collected, and 0.5 ml aliquots were mixed with an alumina suspension (40 mg/ml) in 0.05 M Tris-HCl, pH 8.6. Each mixture was then continuously stirred for 10 min, washed with the Tris-HCl buffer, and the alumina finally collected by centrifugation (800 g, 5 min. 4° C.). Catechols adsorbed onto the alumina gel were eluted with 0.6 N perchloric acid (0.1 ml per sample), and the eluate was neutralized with 2 M potassium phosphate pH 7.4 (20 μl per sample). After centrifugation (30 000 g, 15 min, 4° C.), 10 μl aliquots of the cleared supernatant were injected into a high performance liquid chromatography column (Ultrasphere IP, 25 cm, 0.46 cm outer diameter, 5 μm) for the electrochemical quantification of L-Dopa, as described in detail elsewhere (Adrien et al., 1989).",
  "data": [
    {"smiles": "C[C@H]1c2cccc(O)c2C(=O)C2=C(O)[C@]3(O)C(=O)C(C(N)=O)=C(O)[C@@H](N(C)C)[C@@H]3[C@@H](O)[C@@H]21", "note": "[doxycycline]", "values": [
      {"measurement": "decrease of TH activity in the presence of doxycycline", "setting": "14 days post-infection", "value": "at least 10 fold"},
      {"measurement": "TH activity in doxycycline-treated cells", "setting": "day 14", "value": "3,590 pmol/mg prot/h"}
    ]}
  ]
}
